# Laboratory results from BindingDB's records for doi:10.1016/j.bmcl.2008.06.095 (Tokyo University of Agriculture and Technology, 2008).
# Experiment: Antagonist activity at VDR in human HL60 cells assessed as effect on 1,25-(OH)2-D3-induced cell differentiation by NBT assay
row,Compound,IC50
1,"C=C1/C(=C\C=C2/CCC[C@]3(C)[C@@H]([C@H](C)C[C@H]4C[C@](C)(O)C(=O)N4Cc4ccccc4)CC[C@@H]23)C[C@@H](O)C[C@@H]1O [(3S,5S)-1-benzyl-5-((R)-2-((1R,3aS,7aR)-4-(2-((3S,5R)-3,5-dihydroxy-2-methylenecyclohexylidene)ethylidene)-7a-methyl-octahydro-1H-inden-1-yl)propyl)-3-hydroxy-3-methylpyrrolidin-2-one]",700 nM
2,"C=C1/C(=C\C=C2/CCC[C@]3(C)[C@@H]([C@H](C)C[C@H]4C[C@](C)(O)C(=O)N4CCCc4cc(OC)cc(OC)c4)CC[C@@H]23)C[C@@H](O)C[C@@H]1O [(3S,5S)-5-((R)-2-((1R,3aS,7aR)-4-(2-((3S,5R)-3,5-dihydroxy-2-methylenecyclohexylidene)ethylidene)-7a-methyl-octahydro-1H-inden-1-yl)propyl)-1-(3-(3,5-dimethoxyphenyl)propyl)-3-hydroxy-3-methylpyrrolidin-2-one]",780 nM
3,"C=C1/C(=C\C=C2/CCC[C@]3(C)[C@@H]([C@H](C)C[C@H]4C[C@](C)(O)C(=O)N4CCCCc4ccccc4)CC[C@@H]23)C[C@@H](O)C[C@@H]1O [(3S,5S)-5-((R)-2-((1R,3aS,7aR)-4-(2-((3S,5R)-3,5-dihydroxy-2-methylenecyclohexylidene)ethylidene)-7a-methyl-octahydro-1H-inden-1-yl)propyl)-3-hydroxy-3-methyl-1-(4-phenylbutyl)pyrrolidin-2-one]",390 nM
4,"C=C1/C(=C\C=C2/CCC[C@]3(C)[C@@H]([C@H](C)C[C@H]4C[C@](C)(O)C(=O)N4Cc4cc(OC)cc(OC)c4)CC[C@@H]23)C[C@@H](O)C[C@@H]1O [(3S,5S)-1-(3,5-dimethoxybenzyl)-5-((R)-2-((1R,3aS,7aR)-4-(2-((3S,5R)-3,5-dihydroxy-2-methylenecyclohexylidene)ethylidene)-7a-methyl-octahydro-1H-inden-1-yl)propyl)-3-hydroxy-3-methylpyrrolidin-2-one]",300 nM
5,"C=C1/C(=C\C=C2/CCC[C@]3(C)[C@@H]([C@H](C)C[C@H]4C[C@](C)(O)C(=O)N4CCc4ccccc4)CC[C@@H]23)C[C@@H](O)C[C@@H]1O [(3S,5S)-5-((R)-2-((1R,3aS,7aR)-4-(2-((3S,5R)-3,5-dihydroxy-2-methylenecyclohexylidene)ethylidene)-7a-methyl-octahydro-1H-inden-1-yl)propyl)-3-hydroxy-3-methyl-1-phenethylpyrrolidin-2-one]",194 nM
6,"C=C1/C(=C\C=C2/CCC[C@]3(C)[C@@H]([C@H](C)C[C@H]4C[C@](C)(O)C(=O)N4Cc4cc(OCCCC)cc(OCCCC)c4)CC[C@@H]23)C[C@@H](O)C[C@@H]1O [(3S,5S)-1-(3,5-dibutoxybenzyl)-5-((R)-2-((1R,3aS,7aR)-4-(2-((3S,5R)-3,5-dihydroxy-2-methylenecyclohexylidene)ethylidene)-7a-methyl-octahydro-1H-inden-1-yl)propyl)-3-hydroxy-3-methylpyrrolidin-2-one]",540 nM
7,"C=C1/C(=C\C=C2/CCC[C@]3(C)[C@@H]([C@H](C)C[C@H]4C[C@](C)(O)C(=O)N4CCc4cc(OC)cc(OC)c4)CC[C@@H]23)C[C@@H](O)C[C@@H]1O [(3S,5S)-1-(3,5-dimethoxyphenethyl)-5-((R)-2-((1R,3aS,7aR)-4-(2-((3S,5R)-3,5-dihydroxy-2-methylenecyclohexylidene)ethylidene)-7a-methyl-octahydro-1H-inden-1-yl)propyl)-3-hydroxy-3-methylpyrrolidin-2-one]",860 nM
8,"C=C1/C(=C\C=C2/CCC[C@]3(C)[C@@H]([C@H](C)C[C@H]4C[C@](C)(O)C(=O)N4CCCc4ccccc4)CC[C@@H]23)C[C@@H](O)C[C@@H]1O [(3S,5S)-5-((R)-2-((1R,3aS,7aR)-4-(2-((3S,5R)-3,5-dihydroxy-2-methylenecyclohexylidene)ethylidene)-7a-methyl-octahydro-1H-inden-1-yl)propyl)-3-hydroxy-3-methyl-1-(3-phenylpropyl)pyrrolidin-2-one]",2200 nM

# Further lines, results first:
row,IC50,Compound
1,180 nM,"C=C1/C(=C\C=C2/CCC[C@]3(C)[C@@H]([C@H](C)C[C@H]4C[C@](C)(O)C(=O)N4Cc4cc(OCCC)cc(OCCC)c4)CC[C@@H]23)C[C@@H](O)C[C@@H]1O [(3S,5S)-1-(3,5-dipropoxybenzyl)-5-((R)-2-((1R,3aS,7aR)-4-(2-((3S,5R)-3,5-dihydroxy-2-methylenecyclohexylidene)ethylidene)-7a-methyl-octahydro-1H-inden-1-yl)propyl)-3-hydroxy-3-methylpyrrolidin-2-one]"
2,> 3000 nM,"C=C1/C(=C\C=C2/CCC[C@]3(C)[C@@H]([C@H](C)C[C@@H]4C[C@](C)(O)C(=O)N4Cc4cc(OC)cc(OC)c4)CC[C@@H]23)C[C@@H](O)C[C@@H]1O [(3S,5R)-1-(3,5-dimethoxybenzyl)-5-((R)-2-((1R,3aS,7aR)-4-(2-((3S,5R)-3,5-dihydroxy-2-methylenecyclohexylidene)ethylidene)-7a-methyl-octahydro-1H-inden-1-yl)propyl)-3-hydroxy-3-methylpyrrolidin-2-one]"
3,> 3000 nM,"C=C1/C(=C\C=C2/CCC[C@]3(C)[C@@H]([C@H](C)C[C@H]4C[C@@](C)(O)C(=O)N4Cc4cc(OC)cc(OC)c4)CC[C@@H]23)C[C@@H](O)C[C@@H]1O [(3R,5S)-1-(3,5-dimethoxybenzyl)-5-((R)-2-((1R,3aS,7aR)-4-(2-((3S,5R)-3,5-dihydroxy-2-methylenecyclohexylidene)ethylidene)-7a-methyl-octahydro-1H-inden-1-yl)propyl)-3-hydroxy-3-methylpyrrolidin-2-one]"
4,90 nM,"C=C1/C(=C\C=C2/CCC[C@]3(C)[C@@H]([C@H](C)C[C@H]4C[C@](C)(O)C(=O)N4Cc4cc(OCC)cc(OCC)c4)CC[C@@H]23)C[C@@H](O)C[C@@H]1O [(3S,5S)-1-(3,5-diethoxybenzyl)-5-((R)-2-((1R,3aS,7aR)-4-(2-((3S,5R)-3,5-dihydroxy-2-methylenecyclohexylidene)ethylidene)-7a-methyl-octahydro-1H-inden-1-yl)propyl)-3-hydroxy-3-methylpyrrolidin-2-one]"
5,> 3000 nM,"C=C1/C(=C\C=C2/CCC[C@]3(C)[C@@H]([C@H](C)C[C@@H]4C[C@@](C)(O)C(=O)N4Cc4cc(OC)cc(OC)c4)CC[C@@H]23)C[C@@H](O)C[C@@H]1O [(3R,5R)-1-(3,5-dimethoxybenzyl)-5-((R)-2-((1R,3aS,7aR)-4-(2-((3S,5R)-3,5-dihydroxy-2-methylenecyclohexylidene)ethylidene)-7a-methyl-octahydro-1H-inden-1-yl)propyl)-3-hydroxy-3-methylpyrrolidin-2-one]"
